# Assay results as given in patent US10828326B2, “Compositions and methods for treating and preventing venom related poisoning” (priority 2015, dated 2020).
# Assays:
# C. atrox venom = assay: Isolated venom exposure to FeCl3, CORM-2 or iCORM-2, then thrombelastography in human plasma (Example VI); format: biochemical, Crotalus atrox; conditions: in words
# Experimental: C. atrox venom was obtained from the National Natural Toxins Research Center at Texas A&M University-Kingsville, Tex., USA. Venom was reconstituted in calcium-free phosphate buffered saline (PBS, Sigma-Aldrich, Saint Louis, Mo., USA), and stored at −80° C. Pooled human normal plasma anticoagulated with sodium citrate was obtained from George King Bio-Medical, Overland Park, Kans., USA. Ferric chloride (FeCl3, 99.9% pure), tricarbonyldichlororuthenium (II) dimer (CORM-2), and dimethyl sulfoxide (DMSO) were obtained from Sigma-Aldrich. The final concentrations of FeCl3 (dissolved in PBS) and CORM-2 (dissolved in DMSO) were 0-10 μM and 0-100 μM, respectively; these were the concentrations used in previous works involving the effects of modifying fibrinogen prior to venom exposure in plasma.
# To increase the detection of effects of iron/CO on venom activity, the concentration of venom chosen for isolated exposure and for addition to plasma was twice the amount expected to eliminate coagulation based on previous work (see, Nielsen V G, Boyer L V. Iron and carbon monoxide attenuate degradation of plasmatic coagulation by Crotalus atrox venom. Blood Coagul Fibrinolysis. In press). A 1 ml quantity of a 200 μg/ml solution of venom in PBS was prepared for each condition subsequently presented. The conditions were: 1) 1% addition (v/v) of PBS and DMSO to PBS without venom; 2) 1% addition (v/v) of PBS and DMSO to PBS with venom; 3) 1% addition of FeCl3 and CORM-2 to PBS without venom; 4) 1% addition of FeCl3 and CORM-2 to PBS […]) 1% addition of FeCl3 and DMSO to PBS with venom; 6) 1% addition of CORM-2 to PBS with venom; and lastly, 7) 1% addition of PBS and iCORM-2 to PBS with venom. After 3 min of incubation at room temperature, 3.6 μl of solution from one of these conditions was placed into 326 μl of plasma and 10 μl of tissue factor reagent (0.1% final concentration in distilled water; Diagnostica Stago S.A.S., Asnieres sur Seine, France) in a disposable cup in a computer-controlled Thrombelastograph® hemostasis system (Model 5000, Haemonetics Inc., Braintree, Mass., USA). After test solution addition, 20 μl of 200 mM CaCl2 was immediately added to initiate clotting. Data were collected at 37° C. for 15 min. […] 2014; 25(8):801-805) were determined: time to maximum rate of thrombus generation (TMRTG): this is the time interval (min) observed prior to maximum speed of clot growth; maximum rate of thrombus generation (MRTG): this is the maximum velocity of clot growth observed (dynes/cm^2/sec); and total thrombus generation (TTG, dynes/cm^2), the final viscoelastic resistance observed after clot formation. […]
# [1] = tested on: Crotalus atrox venom-enhanced tissue-type plasminogen activator initiated fibrinolysis; assay: Thrombelastography of human plasma pretreated with iron and/or CO before venom exposure in the presence of tPA (Example II); format: biochemical; conditions: 100 IU/ml tPA; for time to maximum rate of thrombus generation (TMRTG): 100 μM CORM-2
# Experimental: Two hundred mg of lyophilized, pooled venom was obtained from four western diamondback rattlesnakes (Crotalus atrox) for experimentation. Venom was reconstituted in calcium-free phosphate buffered saline (PBS, Sigma-Aldrich, Saint Louis, Mo., USA) at a concentration of 20 mg/ml, aliquoted, and then stored at −80° C. until experimentation at the University of Arizona.
# Pooled normal plasma (George King Bio-Medical, Overland Park, Kans., USA) anticoagulated with sodium citrate was rapidly thawed at 37° C. and used for experimentation. To assess the effects of pretreatment of antifibrinolytic plasma proteins with iron, CO, or both, 1% additions of PBS, ferric chloride (FeCl3, 99.9% pure, Sigma-Aldrich, Saint Louis, Mo., USA) in PBS, or CORM-2 (tricarbonyldichlororuthenium (II) dimer, a CO releasing molecule, Sigma-Aldrich, Saint Louis, Mo., USA) dissolved in dimethyl sulfoxide (DMSO, Sigma-Aldrich, Saint Louis, Mo., USA) were used. […] Plasma was exposed to these various agents for at least 5 min prior to incubations with venom.
# The final volume for all subsequently described plasma sample mixtures was 359.4 μl. Sample composition consisted of […] of plasma; 10 μl of tissue factor reagent (0.1% final concentration in distilled water; Diagnostica Stago S.A.S., Asnieres sur Seine, France), 10 μl of tissue type plasminogen activator (tPA, 580 IU/μg, Genentech, Inc., San Francisco, Calif., USA; 100 IU/ml final concentration) and 3.4 μl of PBS or venom (final concentration 0.5-2.0 μg/ml). […] The aforementioned plasma and venom mixtures were placed in a disposable cup in a computer-controlled Thrombelastograph® hemostasis system (Model 5000, Haemoscope Corp., Niles, Ill., USA) and incubated for 5 min at 37° C., with addition of 20 μl of 200 mM CaCl2) as the last step to initiate clotting. Data were collected at 37° C. until clot lysis time (CLT) was observed. The following elastic modulus-based parameters previously described (see, Nielsen V G, Pretorius E. Blood Coagul Fibrinolysis 2014; 25:695-702) were determined: time to maximum rate of thrombus generation (TMRTG): this is the time interval (min) observed prior to maximum speed of clot growth; maximum rate of thrombus generation (MRTG): this is the maximum velocity of clot growth observed (dynes/cm^2/sec); total thrombus generation (TTG, dynes/cm^2), the final viscoelastic resistance observed after clot formation; time to maximum rate of lysis (TMRL, min), maximum rate of lysis (MRL, dynes/cm^2/sec) and CLT (min). Lastly, to assess if venom had thrombolytic properties that were tPA independent, n=4 replicates were performed wherein no tPA was added and data were collected for 3 h.
# Data are presented as mean±SD. All conditions unless otherwise indicated were represented by n=8 replicates. This number of replicates reliably provides a statistical power>0.8 for P<0.05 (see, Nielsen V G, Pretorius E. Blood Coagul Fibrinolysis 2014; 25:695-702). A commercially available statistical program was used for two-way analysis of variance (ANOVA) to assess interactions of venom and tPA on coagulation kinetics and interactions of iron and CO on venom-enhanced fibrinolysis (SigmaStat 3.1, Systat Software, Inc., San Jose, Calif., USA). Additional one-way ANOVA followed by Holm-Sidak post hoc analyses were performed to assess differences between the conditions. Graphics depicting viscoelastic data were generated with a commercially available program (OrigenPro 7.5, OrigenLab Corporation, Northampton, Mass., USA).
# [2] = rabbit ear-bleed model; CORM-2 injected at 10 mg/kg (equivalent to 279 μM final concentration); cited from earlier work
# Crotalus atrox venom = assay: Thrombelastography of human plasma pretreated with iron and/or CO, then incubated with Crotalus atrox venom (Example I); format: biochemical; conditions: 0.5 μg/ml venom, 5 min incubation
# Experimental: (§1) Two-hundred mg of lyophilized, pooled venom was obtained from four western diamondback rattlesnakes (Crotalus atrox) for experimentation. Venom was reconstituted in calcium-free phosphate buffered saline (PBS, Sigma-Aldrich, Saint Louis, Mo., USA) at a concentration of 20 mg/ml, aliquoted, and then stored at −80° C. until experimentation at the University of Arizona. Pooled human normal plasma (George King Bio-Medical, Overland Park, Kans., USA) anticoagulated with sodium citrate was rapidly thawed at 37° C. and used for experimentation. To assess the effects of pretreatment of fibrinogen with iron, CO, or both, 1% additions of PBS, ferric chloride (FeCl3, 99.9% pure, Sigma-Aldrich, Saint Louis, Mo., USA) in PBS, or CORM-2 (tricarbonyldichlororuthenium (II) dimer, a CO releasing molecule, Sigma-Aldrich, Saint Louis, Mo., USA) dissolved in dimethyl sulfoxide (DMSO, Sigma-Aldrich, Saint Louis, Mo., USA). The final concentrations of FeCl3 and CORM-2 were 10 μM and 100 μM, respectively; these concentrations are associated with nearly maximal augmenting effects on coagulation kinetics (see, Nielsen V G, et al., Blood Coagul Fibrinolysis 2014; 25:695-702). Plasma was exposed to these various agents for at least 5 min prior to incubations with venom.
# (§2) The final volume for all subsequently described plasma sample mixtures was 359.4 μl. Sample composition consisted of 326 μl of plasma; 10 μl of tissue factor reagent (0.1% final concentration in distilled water; Diagnostica Stago S.A.S., Asnieres sur Seine, France) and 3.4 μl of PBS or venom (final concentration 0.5 μg/ml). […] The aforementioned plasma and venom mixtures were placed in a disposable cup in a computer-controlled Thrombelastograph® hemostasis system (Model 5000, Haemoscope Corp., Niles, Ill., USA) and incubated for 5 or 20 min at 37° C., with addition of 20 μl of 200 mM CaCl2) as the last step to initiate clotting. Data were collected at 37° C. for 15 min after 5 min of incubation, whereas samples incubated with venom for 20 min had data collected for 30 min, given the prolonged onset of coagulation and diminished rate of thrombus formation. The following elastic modulus-based parameters previously described (see, Nielsen, et al., 2014, Blood Coagul. Fibrinolysis 25:695-702; Nielsen, et al., 2011, Blood Coagul. Fibrinolysis 22: 443-447); Nielsen V G, et al., Blood Coagul Fibrinolysis 2014; 25:845-850) were determined: time to maximum rate of thrombus generation (TMRTG): this is the time interval (min) observed prior to maximum speed of clot growth; maximum rate of thrombus generation (MRTG): this is the maximum velocity of clot growth observed (dynes/cm^2/sec); and total thrombus generation (TTG, dynes/cm^2), the final viscoelastic resistance observed after clot formation.
# (§3) Data are presented as mean+SD. A commercially available statistical program was used for one-way analysis of variance followed by Holm-Sidak post hoc analyses (SigmaStat 3.1, Systat Software, Inc., San Jose, Calif., USA). Graphics depicting viscoelastic data were generated with a commercially available program (OrigenPro 7.5, OrigenLab Corporation, Northampton, Mass., USA; CorelDRAW12, Corel Corporation, Mountain View, Calif., USA).
# human plasma = assay: Thrombelastography of venom naïve human plasma with iron and/or CO addition (Example I); format: biochemical; conditions: baseline (venom naïve); 10 μM FeCl3 and/or 100 μM CORM-2; compared to plasma without any additions
# Experimental: as §1, §2, §3
# [3] = 10 μM ferric chloride or 100 μM CORM-2, vs matched samples without or with venom exposure (0.5 μg/ml)
Molecule,effects on C. atrox venom activity on plasmatic coagulation (C. atrox venom; isolated venom exposure),"coagulation kinetic parameters of plasma after addition of PBS with venom exposed to the agent (C. atrox venom; venom 2 μg/ml final, 10 μM FeCl3, 100 μM CORM-2 or iCORM-2)",maximum rate of lysis (MRL) ([1]; 100 μM CORM-2 addition followed by venom exposure (0.5 μg/ml)),"maximum rate of lysis (MRL) ([1]; 100 μM CORM-2 addition, without venom)",adverse effects [2],"maximum rate of thrombus generation (MRTG), change on venom exposure (Crotalus atrox venom; vs matched venom naïve samples)",maximum rate of thrombus generation (MRTG) (Crotalus atrox venom; vs plasma without additions exposed to venom),clot strength (TTG) (Crotalus atrox venom; vs samples without CO added),"clot lysis time (CLT) [1, 3]","maximum rate of thrombus generation (MRTG) [1, 3]","time to maximum rate of lysis (TMRL) [1, 3]","total thrombus generation (TTG) [1, 3]",time to maximum rate of thrombus generation (TMRTG) ([1]; venom exposed plasma (0.5 μg/ml)),time to maximum rate of thrombus generation (TMRTG) ([1]; venom naïve samples),maximum rate of thrombus generation (MRTG) (human plasma),time to maximum rate of thrombus generation (TMRTG) (human plasma),total thrombus generation (TTG) (human plasma)
"[C-]#[O+].[C-]#[O+].[C-]#[O+].[C-]#[O+].[C-]#[O+].[C-]#[O+].[Cl][Ru][Cl].[Cl][Ru][Cl] [CORM-2, tricarbonyldichlororuthenium (II) dimer]",completely inhibited,not different from PBS/DMSO exposed plasma,reduced MRL to control values,significantly increased,without adverse effects noted,–,–,–,–,–,–,–,–,–,–,–,–
tricarbonyldichlororuthenium (II) dimer [CORM-2],–,–,–,–,–,significantly decreased,significantly greater,significantly greater,significantly greater,significantly greater,significantly greater,greater,significantly less,did not significantly affect,significant increase,no change,significant increase
